# Source: ChEMBL document CHEMBL3507680, “University of Dundee, Gates Library screen for HepG2 cell viability”
# Experiment: Human HepG2 cell viability assay in 384 well format
# Type: toxicity, cell-based
# Set-up: dose 125 nL, time 70.5 hour; cytotoxicity at 70.5 h: concentration not given beside the values
# Settings: HepG2 cells, read-out: Inhibition
row,Structure (SMILES),cytotoxicity at 70.5 h [%]
1,Cc1cc(CN2C[C@H]3CC[C@@H]2CN(Cc2[nH]cnc2C)C3)on1,-6.39
2,CC(C)CCN1CCc2c(C(=O)N(C)Cc3ccccn3)nn(C)c2C1,-2.57
3,CCCC(=O)NC(C)c1nnc2n1CCC2 (configuration not stated),-15.3
4,c1cnc2[nH]c(C3CCCNC3)c(CN3CCCOCC3)c2c1 (configuration not stated),-5.16
5,CN1[C@@H](C(=O)NCC2CC2)C[C@H]2CN(Cc3ccsc3)C[C@H]21,12.6
6,COc1ccc(Cc2ncc3c(n2)CN(C(=O)CCO)C3)cc1,25.1
7,CN(Cc1ccsc1)C(=O)c1cc(S(=O)(=O)N(C)C)ccc1Cl,-7.18
8,O=C1CCC2(CCCN(c3ncnc4[nH]cnc34)C2)CN1CCCO (configuration not stated),-14.3
9,CC(C)N1CCc2[nH]nc(C(=O)N3CCN(C)CC3)c2C1,-1.5
10,CCc1csc(C2CCCN(C(=O)c3cc(Cl)c[nH]3)C2)n1 (configuration not stated),2.15
11,CN(Cc1ccc(C(=O)Nc2sccc2C#N)cc1)Cc1ccno1,-5.41
12,CNc1cc(-c2cc(OC)c(OC)c(OC)c2)ncn1,-6.66
13,CCCN1C(=O)[C@H]2CC[C@@H]1CN(S(=O)(=O)c1cccc(Cl)c1)C2,-9.33
14,N#Cc1ccccc1CN1CCC(CN2CCOCC2)C1 (configuration not stated),-5.31
15,CCOCCNC(=O)[C@@H]1CCCN1c1nccc(Nc2ccccc2)n1,-1.64
16,CN1CCN(C(=O)COCc2nc(-c3ccncc3)no2)CC1,17.1
17,Cn1cc(CN2CC[C@H]3C[C@@H](c4nc(C5CC5)cs4)O[C@@H]3C2)cn1,5.37
18,Fc1ccc(OCc2nnc([C@H]3CCN(Cc4ccccn4)C3)o2)cc1,-7.48
19,CNC(=O)COC1COC2(CCN(c3ccc(C#N)cc3)CC2)C1 (configuration not stated),-5.98
20,CC(NC(=O)c1cccs1)C(=O)NS(=O)(=O)c1cccc(C#N)c1 (configuration not stated),2.5
21,COC(=O)C1CCCN1C(=O)c1ccc(-n2nc(C)cc2C)cc1 (configuration not stated),-4.44
22,CCCN(CCC)S(=O)(=O)N(C)Cc1ccncc1,-12.4
23,CC(CNC(=O)c1cn(-c2ccccc2)nn1)Cn1cccn1 (configuration not stated),13.9

row,Structure (SMILES),cytotoxicity at 70.5 h [%]
1,CN(C)c1cccc(C(=O)NCC(O)c2cccs2)c1 (configuration not stated),20.3
2,CSc1ccccc1NC(=O)N1C[C@@H](N(C)C)[C@H](c2ccc(C)cc2)C1,-13.9
3,CCC[C@@H]1CN(Cc2cnc3c(S(C)(=O)=O)cnn3c2)C[C@H]1N(C)C,-7.08
4,C[C@H]1CN(C(=O)c2ccc[nH]2)C[C@@]12CCN(c1ccsc1)C2=O,-5.02
5,c1cnc(NCc2cncc3c2CCN(Cc2ccsc2)C3)nc1,-7.81
6,CCN(CC)C(=O)CCc1c(C)nc2cc(O)nn2c1C,-3.01
7,COc1ccc(O[C@H]2COCCN(Cc3cccc4c3OCO4)C2)cc1,3.63
8,COc1cccc(CCNC(=O)NC(C)C)c1O,9.97
9,COc1ccc2c(c1)OCC(C(=O)NCc1nc3c(s1)CCCC3)C2 (configuration not stated),-8.87
10,CC(C)C(=O)NCC(=O)N1CCC2(CC1)c1ccccc1[C@@H](N)[C@@H]2O,13.2
11,CCC(Nc1ncnc2sc(C(=O)O)c(C)c12)c1ccnn1C (configuration not stated),-12.8
12,Cn1cc(S(=O)(=O)NC(=O)C2(c3ccccc3)CCC2)cn1,-4.68
13,O=C1NC2(CCc3ccccc31)CCN(C(=O)c1ccncc1)C2 (configuration not stated),-3.88
14,O=C(N[C@@H]1CN(Cc2ccc(F)cc2)C[C@H]1O)c1cscn1,-1.52
15,CCOC(C(=O)N1CCn2c(CC)nnc2C1)c1ccccc1 (configuration not stated),-11.9
16,CCC[C@H]1CN(S(=O)(=O)c2cc(C)ccc2C)C[C@@H]1N,-0.438
17,Cc1nnc(CN(C)CCOc2cccc(Cl)c2)o1,-10.9
18,CN(C1CCCN(c2ccccn2)C1)S(C)(=O)=O (configuration not stated),-3.73
19,COc1c(CNC(C)C(=O)NC2CCCC2)c(C)nn1C (configuration not stated),-6.91
20,COc1cc(C)nc(N2CCN(C(=O)COCC(F)(F)F)CC2)n1,-15.4
21,COc1ccc(-c2nnc(CNCCn3cccn3)o2)cc1,-9.2
22,Cc1ccc(CN2CCC3(CC2)CN(c2cnn(C)c2)C(=O)CO3)o1,-9.82
23,CCCc1n[nH]c(C2CN(CCCOc3ccccc3)CCO2)n1 (configuration not stated),-6.69

row,Structure (SMILES),cytotoxicity at 70.5 h [%]
1,CC(c1cn2ncsc2n1)N1Cc2ncccc2C1=O (configuration not stated),-10.3
2,NC(=O)CN1CCC(NC(=O)COCCOc2ccccc2)CC1,-4.83
3,CCOc1ccc(NC(=O)N2CCOC(C(N)=O)C2)cc1C (configuration not stated),1.77
4,Cc1cc(C)nc(C2CCCN2C(=O)c2cnco2)n1 (configuration not stated),33.6
5,CN(c1ccc(F)c(F)c1)S(=O)(=O)c1cc2c(c(C(=O)O)c1)OCCO2,-7.51
6,COc1ccnc(NCC2CN(C3CC3)CCO2)n1 (configuration not stated),10.1
7,CSc1ncn(-c2nc(NC3CC3)nc(N(C)C)n2)n1,-25.9
8,CC(c1ncc(-c2ccccc2)o1)N1CCN(C(=O)N(C)C)CC1 (configuration not stated),-2.55
9,Cc1cc(C(=O)N2CCC3(CC2)CN(CCN(C)C)C(=O)O3)nc(C)n1,-6.56
10,O=C(c1ccc(-n2cccn2)cc1Cl)N1CCCC(O)(CO)C1 (configuration not stated),-4.68
11,Cc1nc(CN2CCCCC2CCc2ccc(O)cc2)no1 (configuration not stated),6.16
12,Cc1cncc(C(=O)N2CCCCC2c2nc(C)cs2)c1 (configuration not stated),17.3
13,CCCSCC(=O)NS(=O)(=O)c1ccc2c(c1)OCCO2,2.12
14,COc1c(C2CCCN2C(=O)c2ccc3[nH]cnc3c2)c(C)nn1C (configuration not stated),-0.572
15,CC(C)CNC(=O)C1=NOC2(CCN(Cc3ccc(C(C)C)cc3)C2)C1 (configuration not stated),-1.12
16,COC(=O)C1=C(C)N=C2SCC(=O)N2C1c1cnn(C)c1C (configuration not stated),-1.28
17,CC(C)NC(=O)N1CCN(Cc2ccccn2)CC2(CC(=O)N(C)C2)C1 (configuration not stated),22.3
18,CCNc1nc(C)c(C(=O)N2CCC(C(O)Cc3ccccc3)CC2)s1 (configuration not stated),-14.6
19,Cc1noc(C)c1C(=O)N1CCSc2ccc(Cl)cc21,11.5
20,O=S1(=O)NC(c2ccnc(N3CCOCC3)n2)=Nc2ccccc21,-9.53
21,CN(Cc1cc2cc(F)ccc2[nH]1)c1cc(C2CCCNC2)ncn1 (configuration not stated),-0.169
22,CCN1CC(C)(C)CN(C(=O)CCc2ccccc2)CC1=O,-5.69
23,COC(=O)c1cccn1C1CCN(S(=O)(=O)c2ccccc2)CC1,3.76

row,Structure (SMILES),cytotoxicity at 70.5 h [%]
1,CC(C)C(CNC(=O)NCc1cc[nH]n1)N1CCOCC1 (configuration not stated),-5.25
2,CCN1CCN(C2CCN(Cc3ncc(C(C)(C)C)o3)CC2)C1=O,-8.55
3,CC(C)c1n[nH]c(C2CN(C(=O)CCc3cscn3)CCO2)n1 (configuration not stated),13.2
4,Cc1ccc(-c2cc(CS(=O)(=O)NC3CCCNC3=O)on2)cc1 (configuration not stated),0.495
5,CCc1ccc(CN(Cc2ccccc2)CC(C)CO)nc1 (configuration not stated),-6.55
6,CN(Cc1ccc(C#N)cc1)c1ncc(C(N)=O)cc1Cl,-7.36
7,Cc1ccc2c(n1)N(C)CCN(Cc1cnn(C)c1)C2,-2.39
8,O=C(NCCNc1ncccn1)N1CCCC(C(F)(F)F)C1 (configuration not stated),-9.23
9,CC(c1ccco1)N(C(=O)c1cc2c([nH]c1=O)CCCC2=O)C1CC1 (configuration not stated),2.68
10,CCC(Nc1cccc(Oc2ccccn2)c1)C(N)=O (configuration not stated),-7.08
11,CN1CC(=O)N(c2cccc(F)c2)CC12CCN(Cc1ccsc1)C2 (configuration not stated),-5.22
12,COC(=O)c1cccc(C(=O)N2CCN(c3cc(C)ccc3C)CC2)n1,0.723
13,c1cncc(N2CCOCC3(CN(Cc4cccs4)CCO3)C2)c1 (configuration not stated),19.2
14,O=C1CCC(=O)N1Cc1ccc(C(=O)N2CCCC2c2cccs2)cc1 (configuration not stated),-11.1
15,Cc1noc(C2CCN(C(C)c3nc(C4CC4)no3)CC2)n1 (configuration not stated),-16.9
16,COc1ccc(C(=O)N2CC(=O)N(Cc3cccs3)CC(O)C2)cc1 (configuration not stated),-2.23
17,CC(=O)NCC1CN(c2ccc3c(Cl)ccnc3c2F)CCO1 (configuration not stated),-7.29
18,N#Cc1c(Cl)nsc1NCc1ccc(N2CCC(CO)CC2)cc1,-0.689
19,Cc1cc(C)n(CC2CCCN2C(=O)Cc2csc(C)n2)n1 (configuration not stated),-1.11
20,COc1cc(Oc2ccc(C#N)cn2)ccc1CN1CCCC1,-5.77
21,COCCCNC(=O)CN(C)C(C)c1nc(C(C)C)no1 (configuration not stated),-4.17
22,Cn1cc(C(=O)NCc2cncc3c2CCN(S(C)(=O)=O)C3)cn1,0.567
23,CN(Cc1ccco1)Cc1cncc2c1CCN(c1ncccn1)C2,7.69

row,Structure (SMILES),cytotoxicity at 70.5 h [%]
1,COc1ccc2c(ccn2CCC(=O)NCCC(=O)O)c1,4.49
2,COc1cc(CN(C)C(=O)NCCC(=O)NC2CCCC2)ccc1SC,14.4
3,CC(C)c1nnc2n1CCN(CCS(=O)(=O)c1ccccc1)C2,-2.01
4,CC(C)c1cc(-c2nn3c(C(C)C)nnc3s2)[nH]n1,-11.4
5,COC(=O)c1ccc(F)c(Cn2nc(C)cc2C)c1,4.73
6,O=C(NCc1cccc2cccnc12)N1CCC(n2cncn2)CC1,-1.7
7,O=C(c1ccc(F)cc1)N(CCCO)S(=O)(=O)c1cccs1,-16.3
8,COc1cc(CN2CCCC2)ccc1OC12CCCN(CC1)C2 (configuration not stated),-18.9
9,CN(C)CC(=O)N1CCC2(CC1)COCCN(c1ncccn1)C2,22.5
10,CN(C(=O)Cn1nc(-c2ccccc2F)ccc1=O)C1CCS(=O)(=O)C1 (configuration not stated),-25.7
11,O=C1CO[C@H]2CN(Cc3ccc(C(F)(F)F)cc3)C[C@H]2N1,-2.56
12,Cc1n[nH]c(C2CN(C(=O)c3cc(C)sc3C)CCO2)n1 (configuration not stated),-6.3
13,CSCCNC(=O)c1coc(COc2ccc3sc(C)nc3c2)n1,-13.9
14,CCn1ccnc1CN1CCN(c2ncnc3ccsc23)CC1C (configuration not stated),0.44
15,O=C(O)c1ccn(COc2c(Cl)cccc2Cl)n1,-7.49
16,Cc1cccc(COC[C@@H]2CC[C@H]3[C@H](CCN3C(=O)CC3CC3)O2)n1,-6.33
17,O=C(C1CCCCC1)N1CCC(n2nc(-c3ccco3)ccc2=O)CC1,-0.841
18,CC(NC(=O)c1ccnn1C)c1ccc(OCC2CC2)c(F)c1 (configuration not stated),10.9
19,O=C(CC1CCC1)N1CCCC(CO)(CC2CC2)C1 (configuration not stated),-7.78
20,COC(=O)c1cccc(C(=O)N2CCN(c3ccccc3F)CC2)n1,28.8
